The source of these data is PMC4140855, “Production of an Attenuated Phenol-Soluble Modulin Variant Unique to the MRSA Clonal Complex 30 Increases Severity of Bloodstream Infection” (PLoS Pathogens, 2014).

For orientation: Kd means a measure of binding affinity in units of concentration.

In assay [1] the target is T1, FPR1 (Homo sapiens, UniProt P21462).
T1 construct: expressed in transfected cells; host or cells: HL60 cells, stably transfected
T1 sequence (P21462 1-350): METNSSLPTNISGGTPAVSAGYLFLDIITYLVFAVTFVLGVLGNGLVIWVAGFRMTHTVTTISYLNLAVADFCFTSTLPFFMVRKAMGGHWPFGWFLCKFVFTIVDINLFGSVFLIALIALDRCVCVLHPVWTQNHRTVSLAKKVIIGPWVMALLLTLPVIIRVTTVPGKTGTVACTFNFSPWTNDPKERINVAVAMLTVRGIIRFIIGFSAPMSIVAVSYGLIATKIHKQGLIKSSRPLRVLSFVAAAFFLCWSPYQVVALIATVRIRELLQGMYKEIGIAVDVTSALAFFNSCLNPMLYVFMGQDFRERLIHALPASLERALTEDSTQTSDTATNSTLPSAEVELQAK
In words: Ca2+ flux in HL60 cells stably transfected with FPR1. Format: cell-based. As to the method: Next, we analyzed Ca^2+ flux as a general measure to test for neutrophil activation, as used in previous studies. HL60 cells stably transfected with different FPR receptor genes were used to determine which FPR receptors are differentially activated by PSMα3 versus PSMα3N22Y (Fig. 4A). […] At a peptide concentration of 100 nM, we observed a difference of ∼factor 2 in chemotactic activity comparing the two peptides when FPR1 recognition was inhibited by CHIPS, likely attributable to FPR2-mediated recognition. Owing to the overall ∼10 times lower capacity to stimulate FPR receptors other than FPR2, we observed no chemotaxis at that peptide concentration with addition of the FPR2 blocking agent FLIPr.
(A) Differential activation of FPRs by PSMα3 versus PSMα3N22Y was measured using synthetic peptides and Ca^2+ flux observed in HL60 cells stably transfected with the corresponding FPR genes as readout, using three biological and two technical replicates. The calculated Kd values are shown on the right. […] (B) Ca^2+ flux in human neutrophils upon addition of PSMα3 or PSMα3N22Y and inhibition by FLIPr (FPR2 inhibitor) or CHIPS (FPR1 inhibitor). […]
Human neutrophils were isolated from venous blood of healthy donors as described, [39]. Neutrophil chemotaxis and Ca^2+ flux were determined as previously described, [24]. […] Chemotaxis of neutrophils was determined using a transwell system (Costar) with analysis of neutrophil migration using fluorescence labeling. Calcium fluxes were monitored as a surrogate marker for chemotaxis since it can be measured more robustly and accurately than chemotaxis. For measurement of Ca^2+ fluxes, 5×10^6 neutrophils/ml were labeled with a fluorescent dye and analyzed with a FACScalibur (Becton Dickinson) as described. […] Measurements of 2,000 events were performed and Ca^2+ flux was expressed as relative fluorescence corrected for buffer controls. […] At the desired times, PMN lysis was determined by release of lactate dehydrogenase (LDH) (Cytotoxicity Detection Kit, Roche Applied Sciences).

Assay [2] deals with T2, FPR3 (Homo sapiens, UniProt P25089).
T2 construct: expressed in transfected cells; host or cells: HL60 cells, stably transfected
T2 sequence (P25089 1-353): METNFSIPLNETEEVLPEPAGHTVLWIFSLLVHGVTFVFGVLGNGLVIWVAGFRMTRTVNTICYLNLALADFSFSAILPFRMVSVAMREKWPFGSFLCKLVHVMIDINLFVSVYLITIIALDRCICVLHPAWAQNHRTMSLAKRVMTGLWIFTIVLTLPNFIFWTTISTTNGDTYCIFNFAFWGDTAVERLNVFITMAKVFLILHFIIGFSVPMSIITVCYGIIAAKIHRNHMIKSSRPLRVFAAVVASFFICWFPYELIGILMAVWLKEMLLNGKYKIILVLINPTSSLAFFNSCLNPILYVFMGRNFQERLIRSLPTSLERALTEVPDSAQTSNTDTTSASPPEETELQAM
Kind of assay: Ca2+ flux in HL60 cells stably transfected with FPR3. In kind it is cell-based. To be noted: one site-binding model from Ca2+ flux, synthetic peptides, three biological and two technical replicates, error = standard deviation. Here is the method:
Next, we analyzed Ca^2+ flux as a general measure to test for neutrophil activation, as used in previous studies. HL60 cells stably transfected with different FPR receptor genes were used to determine which FPR receptors are differentially activated by PSMα3 versus PSMα3N22Y (Fig. 4A). […] At a peptide concentration of 100 nM, we observed a difference of ∼factor 2 in chemotactic activity comparing the two peptides when FPR1 recognition was inhibited by CHIPS, likely attributable to FPR2-mediated recognition. […]
(A) Differential activation of FPRs by PSMα3 versus PSMα3N22Y was measured using synthetic peptides and Ca^2+ flux observed in HL60 cells stably transfected with the corresponding FPR genes as readout, using three biological and two technical replicates. The calculated Kd values are shown on the right. […]
Human neutrophils were isolated from venous blood of healthy donors as described, [39]. Neutrophil chemotaxis and Ca^2+ flux were determined as previously described, [24]. […] Chemotaxis of neutrophils was determined using a transwell system (Costar) with analysis of neutrophil migration using fluorescence labeling. Calcium fluxes were monitored as a surrogate marker for chemotaxis since it can be measured more robustly and accurately than chemotaxis. […] Measurements of 2,000 events were performed and Ca^2+ flux was expressed as relative fluorescence corrected for buffer controls. […]
For orientation: Calcium flux is commonly read through the fluorescence of an indicator in the cells.

The subject of assay [3] is human neutrophils. The note with it: ref [11]; cited from earlier work. The text has this:
PSMs are short, amphipathic, α-helical peptides with a major impact on S. aureus virulence, [11]. The PSMα peptides of S. aureus in particular cause lysis of a variety of cell types, including neutrophils (or polymorphonuclear leukocytes, PMNs), monocytes, erythrocytes, and osteoblasts [11]–[13]. The rather low target specificity of PSM-mediated cytolysis is due to the fact that lysis is believed to be receptor-independent, [15], which is reflected by the capacity of PSMs to lyse artificial vesicles. In addition, PSMs have pro-inflammatory capacities that are recep ...

The structures appear in SMILES notation.

On to `CSCC[C@H](NC=O)C(=O)N[C@@H](CCC(=O)O)C(=O)N[C@@H](Cc1ccccc1)C(=O)N[C@H](C(=O)N[C@@H](C)C(=O)N[C@@H](CCCCN)C(=O)N[C@@H](CC(C)C)C(=O)N[C@@H](Cc1ccccc1)C(=O)N[C@@H](CCCCN)C(=O)N[C@@H](Cc1ccccc1)C(=O)N[C@@H](Cc1ccccc1)C(=O)N[C@@H](CCCCN)C(=O)N[C@@H](CC(=O)O)C(=O)N[C@@H](CC(C)C)C(=O)N[C@@H](CC(C)C)C(=O)NCC(=O)N[C@@H](CCCCN)C(=O)N[C@@H](Cc1ccccc1)C(=O)N[C@@H](CC(C)C)C(=O)NCC(=O)N[C@@H](CC(N)=O)C(=O)N[C@@H](Cc1ccc(O)cc1)C(=O)O)C(C)C` [PSMα3N22Y], for which the “Differential activation of FPR receptors by the two peptides” value in assay [1] (Ca2+ flux, transfected HL60 cells, not FPR2 and FPR3) was “only FPR1 was activated differentially”. The dissociation constant (Kd) is 3040 ± 682 nM in assay [1] (one site-binding model from Ca2+ flux, synthetic peptides, FPR1-transfected HL60 cells, three biological and two technical replicates, error = standard deviation); 953 ± 254 nM in assay [2]. In addition, in assay [1] (significant difference), the “Factor of difference in FPR1 Kd, PSMα3 versus PSMα3N22Y” value is around 5.
For `CSCC[C@H](NC=O)C(=O)N[C@@H](CCC(=O)O)C(=O)N[C@@H](Cc1ccccc1)C(=O)N[C@H](C(=O)N[C@@H](C)C(=O)N[C@@H](CCCCN)C(=O)N[C@@H](CC(C)C)C(=O)N[C@@H](Cc1ccccc1)C(=O)N[C@@H](CCCCN)C(=O)N[C@@H](Cc1ccccc1)C(=O)N[C@@H](Cc1ccccc1)C(=O)N[C@@H](CCCCN)C(=O)N[C@@H](CC(=O)O)C(=O)N[C@@H](CC(C)C)C(=O)N[C@@H](CC(C)C)C(=O)NCC(=O)N[C@@H](CCCCN)C(=O)N[C@@H](Cc1ccccc1)C(=O)N[C@@H](CC(C)C)C(=O)NCC(=O)N[C@@H](CC(N)=O)C(=O)N[C@@H](CC(N)=O)C(=O)O)C(C)C` [PSMα3], in assay [3], the “Capacity to elicit chemotaxis by neutrophils, relative to other PSMs” value is listed as “by far exceeds that of any other PSM of S. aureus”; the “Pro-inflammatory and cytolytic potency relative to other PSMs of S. aureus” value is “by far most pro-inflammatory and cytolytic PSM of S. aureus”.
